# Data: patent US20260217687A1 (NeoPhore Limited, priority 2023, published 2026)
# Target: T1, recombinant N-terminal MLH1 (residues 15-340) (Homo sapiens, UniProt P40692)
# T1 construct: recombinant N-terminal MLH1 (residues 15-340)
# T1 sequence (P40692 15-340): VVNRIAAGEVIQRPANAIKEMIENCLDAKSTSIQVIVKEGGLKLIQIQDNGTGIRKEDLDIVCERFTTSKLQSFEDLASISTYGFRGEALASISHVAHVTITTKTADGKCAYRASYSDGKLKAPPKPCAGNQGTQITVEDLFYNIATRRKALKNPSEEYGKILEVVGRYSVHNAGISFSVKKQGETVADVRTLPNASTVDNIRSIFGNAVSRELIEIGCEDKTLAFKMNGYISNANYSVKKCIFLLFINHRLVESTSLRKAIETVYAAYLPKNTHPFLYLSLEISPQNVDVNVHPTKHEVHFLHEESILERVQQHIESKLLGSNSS
# Experiment: Fluorescence Polarisation Assay for MLH1
# Format: binding
# Settings: 100 nM N-terminal MLH1, 5 nM probe compound
# Description: Fluorescence Polarisation Assay for MLH1
# Test compounds, as 10 mM DMSO stocks, were dispensed into a 384-well Low Flange Black Flat Bottom Polystyrene Non-binding Surface plate (Corning®, item number 3575) using a Labcyte Echo acoustic liquid handler. […] 20 μL of a 2× solution (200 nM) of recombinant N-terminal MLH1 (residues 15-340) in assay buffer (25 mM HEPES, pH 7.5, 250 mM NaCl, 10 mM MgCl2, 0.01% Triton X-100, 5 mM Dithiothreitol) was added to all wells in columns 1-23 and 20 μL assay buffer was added to all wells in column 24 using an E1-ClipTip pipette (ThermoFisher). Plates were centrifuged for 1 minute at 250 xg and were incubated at room temperature for 30 minutes prior to the addition of 20 μL of 2×(10 nM) of 5-((5-(4-((2-(2-(Benzyloxy)-4,6-dihydroxybenzoyl)isoindolin-5-yl)methyl)piperazin-1-yl)pentyl)carbamoyl)-2-(6-(dimethylamino)-3-(dimethyliminio)-3H-xanthen-9-yl)benzoate (referred to hereinafter as “probe compound”) in assay buffer (prepared from a 1 mM DMSO stock) with an E1-ClipTip pipette (ThermoFisher). The final concentration of N-terminal MLH1 was 100 nM and the final concentration of the probe compound was 5 nM. Compound plates were centrifuged for 1 minute at 250 xg for 1 minute and immediately read on a PheraStar FSX (fitted with 384-well aperture spoon and 590 675 675 FP optic module). The gain and focus were adjusted before each plate was read so that the polarisation of a no enzyme control (column 24) was equal to 35 mP. Data were normalised against the no inhibitor controls (column 23) and no enzyme controls (column 24).
row,Compound,IC50
1,"CN(C)Cc1ccc2c(c1)CN(C(=O)c1c(O)cc(C(F)F)cc1OCc1ccccc1)CC2 [Example 4.42, (2-(Benzyloxy)-4-(difluoromethyl)-6-hydroxyphenyl)(7-((dimethylamino)methyl)-3,4-dihydroisoquinolin-2(1H)-yl)methanone]",100 to 1000 nM
2,"CN(C)Cc1ccc2c(c1)CCN(C(=O)c1c(O)cc(C(F)F)cc1OCc1ccccc1)C2 [Example 4.43, (2-(Benzyloxy)-4-(difluoromethyl)-6-hydroxyphenyl)(6-((dimethylamino)methyl)-3,4-dihydroisoquinolin-2(1H)-yl)methanone]",100 to 1000 nM
3,"CN1CCC(Oc2ccc3c(c2)CN(C(=O)c2c(O)cc(C(F)F)cc2OCc2ccccc2)CC3)CC1 [Example 4.44, (2-(Benzyloxy)-4-(difluoromethyl)-6-hydroxyphenyl)(7-((1-methylpiperidin-4-yl)oxy)-3,4-dihydroisoquinolin-2(1H)-yl)methanone]",100 to 1000 nM
4,"CN1CCC(Oc2ccc3c(c2)CCN(C(=O)c2c(O)cc(C(F)F)cc2OCc2ccccc2)C3)CC1 [Example 4.45, (2-(Benzyloxy)-4-(difluoromethyl)-6-hydroxyphenyl)(6-((1-methylpiperidin-4-yl)oxy)-3,4-dihydroisoquinolin-2(1H)-yl)methanone]",100 to 1000 nM
5,"CN1CCN(Cc2ccc3c(c2)CN(C(=O)c2c(O)cc(C(F)F)cc2OCc2ccccc2)CC3)CC1 [Example 4.46, (2-(Benzyloxy)-4-(difluoromethyl)-6-hydroxyphenyl)(7-((4-methylpiperazin-1-yl)methyl)-3,4-dihydroisoquinolin-2(1H)-yl)methanone]",100 to 1000 nM
6,"CN1CCN(Cc2ccc3c(c2)CCN(C(=O)c2c(O)cc(C(F)F)cc2OCc2ccccc2)C3)CC1 [Example 4.47, (2-(Benzyloxy)-4-(difluoromethyl)-6-hydroxyphenyl)(6-((4-methylpiperazin-1-yl)methyl)-3,4-dihydroisoquinolin-2(1H)-yl)methanone]",100 to 1000 nM
7,"O=C(c1c(O)cc(C(F)F)cc1OCc1ccccc1)N1CCc2ccc(Cn3ccnc3)cc2C1 [Example 4.48, (7-((1H-Imidazol-1-yl)methyl)-3,4-dihydroisoquinolin-2(1H)-yl)(2-(benzyloxy)-4-(difluoromethyl)-6-hydroxyphenyl)methanone]",100 to 1000 nM
8,"O=C(c1c(O)cc(C(F)F)cc1OCc1ccccc1)N1CCc2cc(Cn3ccnc3)ccc2C1 [Example 4.49, (6-((1H-Imidazol-1-yl)methyl)-3,4-dihydroisoquinolin-2(1H)-yl)(2-(benzyloxy)-4-(difluoromethyl)-6-hydroxyphenyl)methanone]",100 to 1000 nM
9,"O=C(c1c(O)cc(C(F)F)cc1OCc1ccccc1)N1Cc2ccc(Cn3ccnc3)cc2C1 [Example 4.50, (5-((1H-Imidazol-1-yl)methyl)isoindolin-2-yl)(2-(benzyloxy)-4-(difluoromethyl)-6-hydroxyphenyl)methanone]",100 to 1000 nM
10,"CN(C)Cc1ccc2c(c1)CN(C(=O)c1c(O)cc(C(F)F)cc1OCc1ccccc1)C2 [Example 4.51, (2-(Benzyloxy)-4-(difluoromethyl)-6-hydroxyphenyl)(5-((dimethylamino)methyl)isoindolin-2-yl)methanone]",100 to 1000 nM
11,"CN(C)Cc1ccc2c(n1)CN(C(=O)c1c(O)cc(C(F)F)cc1OCc1ccccc1)C2 [Example 4.52, (2-(Benzyloxy)-4-(difluoromethyl)-6-hydroxyphenyl)(2-((dimethylamino)methyl)-5,7-dihydro-6H-pyrrolo[3,4-b]pyridin-6-yl)methanone]",100 to 1000 nM
12,"O=C(c1c(O)cc(C(F)F)cc1OCc1ccccc1)N1Cc2ccccc2C1 [Example 4.54, (2-(Benzyloxy)-4-(difluoromethyl)-6-hydroxyphenyl)(isoindolin-2-yl)methanone]",1000 to 10000 nM
13,"CN1CC[C@@H](Oc2ccc3c(c2)CN(C(=O)c2c(O)cc(C(F)F)cc2OCc2ccccc2)C3)C1 [Example 4.55, (R)-(2-(Benzyloxy)-4-(difluoromethyl)-6-hydroxyphenyl)(5-((1-methylpyrrolidin-3-yl)oxy)isoindolin-2-yl)methanone]",< 100 nM

# The next lines start with the values.
row,IC50,Compound
1,< 100 nM,"CN1CC(Oc2ccc3c(c2)CN(C(=O)c2c(O)cc(C(F)F)cc2OCc2ccccc2)C3)C1 [Example 4.57, (2-(Benzyloxy)-4-(difluoromethyl)-6-hydroxyphenyl)(5-((1-methylazetidin-3-yl)oxy)isoindolin-2-yl)methanone]"
2,100 to 1000 nM,"CN1CCC(Oc2ccc3c(c2)CN(C(=O)c2c(O)cc(C(F)F)cc2OCc2ccccn2)C3)CC1 [Example 4.58, (4-(Difluoromethyl)-2-hydroxy-6-(pyridin-2-ylmethoxy)phenyl)(5-((1-methylpiperidin-4-yl)oxy)isoindolin-2-yl)methanone]"
3,100 to 1000 nM,"O=C(c1c(O)cc(C(F)F)cc1OCc1ccccc1)N1Cc2ccc(Oc3ccncc3)cc2C1 [Example 4.60, (2-(Benzyloxy)-4-(difluoromethyl)-6-hydroxyphenyl)(5-(pyridin-4-yloxy)isoindolin-2-yl)methanone]"
4,100 to 1000 nM,O=C(c1c(O)cc(C(F)F)cc1OCc1ccccc1)N1Cc2ccc(Oc3ccncn3)cc2C1 [Example 4.61]
5,< 100 nM,"CN1CCC(Oc2cc3c(c(N[C@H]4CCOC4)c2)CN(C(=O)c2c(O)cc(C(F)F)cc2OCc2ccccc2)C3)CC1 [Example 4.62, (S)-(2-(Benzyloxy)-4-(difluoromethyl)-6-hydroxyphenyl)(6-((1-methylpiperidin-4-yl)oxy)-4-((tetrahydrofuran-3-yl)amino)isoindolin-2-yl)methanone]"
6,100 to 1000 nM,"CN1CCC(Oc2cc3c(c(N[C@@H]4CCOC4)c2)CN(C(=O)c2c(O)cc(C(F)F)cc2OCc2ccccc2)C3)CC1 [Example 4.63, (R)-(2-(Benzyloxy)-4-(difluoromethyl)-6-hydroxyphenyl)(6-((1-methylpiperidin-4-yl)oxy)-4-((tetrahydrofuran-3-yl)amino)isoindolin-2-yl)methanone]"
7,100 to 1000 nM,"CN1CC[C@H](Oc2ccc3c(c2)CCN(C(=O)c2c(O)cc(C(F)F)cc2OCc2ccccc2)C3)C1 [Example 4.64, (S)-(2-(Benzyloxy)-4-(difluoromethyl)-6-hydroxyphenyl)(6-((1-methylpyrrolidin-3-yl)oxy)-3,4-dihydroisoquinolin-2(1H)yl)methanone]"
8,100 to 1000 nM,"CN1CC[C@@H](Oc2ccc3c(c2)CCN(C(=O)c2c(O)cc(C(F)F)cc2OCc2ccccc2)C3)C1 [Example 4.65, (R)-(2-(Benzyloxy)-4-(difluoromethyl)-6-hydroxyphenyl)(6-((1-methylpyrrolidin-3-yl)oxy)-3,4-dihydroisoquinolin-2(1H)yl)methanone]"
9,100 to 1000 nM,"CN1CC(Oc2ccc3c(c2)CCN(C(=O)c2c(O)cc(C(F)F)cc2OCc2ccccc2)C3)C1 [Example 4.66, (2-(Benzyloxy)-4-(difluoromethyl)-6-hydroxyphenyl)(6-((1-methylazetidin-3-yl)oxy)-3,4-dihydroisoquinolin-2(1H)-yl)methanone]"
10,100 to 1000 nM,"CN1CC[C@@H](Oc2ccc3c(c2)CN(C(=O)c2c(O)cc(C(F)F)cc2OCc2ccccc2)CC3)C1 [Example 4.67, (R)-(2-(Benzyloxy)-4-(difluoromethyl)-6-hydroxyphenyl)(7-((1-methylpyrrolidin-3-yl)oxy)-3,4-dihydroisoquinolin-2(1H)-yl)methanone]"
11,100 to 1000 nM,"CN1CC[C@H](Oc2ccc3c(c2)CN(C(=O)c2c(O)cc(C(F)F)cc2OCc2ccccc2)CC3)C1 [Example 4.68, (S)-(2-(Benzyloxy)-4-(difluoromethyl)-6-hydroxyphenyl)(7-((1-methylpyrrolidin-3-yl)oxy)-3,4-dihydroisoquinolin-2(1H)-yl)methanone]"
12,100 to 1000 nM,"CN1CC(Oc2ccc3c(c2)CN(C(=O)c2c(O)cc(C(F)F)cc2OCc2ccccc2)CC3)C1 [Example 4.69, (2-(Benzyloxy)-4-(difluoromethyl)-6-hydroxyphenyl)(7-((1-methylazetidin-3-yl)oxy)-3,4-dihydroisoquinolin-2(1H)-yl)methanone]"
13,100 to 1000 nM,"O=C(c1c(O)cc(C(F)F)cc1OCc1ccccc1)N1Cc2ccc(OCCN3CCOCC3)cc2C1 [Example 4.70, (2-(Benzyloxy)-4-(difluoromethyl)-6-hydroxyphenyl) (5-(2-morpholinoethoxy)isoindolin-2-yl) methanone]"
14,100 to 1000 nM,"CN1CCN(CCOc2ccc3c(c2)CN(C(=O)c2c(O)cc(C(F)F)cc2OCc2ccccc2)C3)CC1 [Example 4.71, (2-(Benzyloxy)-4-(difluoromethyl)-6-hydroxyphenyl) (5-(2-(4-methylpiperazin-1-yl)ethoxy)isoindolin-2-yl) methanone]"
